What was measured:
[1] = tested on: BxPC-3 human pancreatic carcinoma cells; experiment: BxPC-3 gemcitabine resistant pancreatic carcinoma xenograft in CD-1 nude mice; type: in vivo, human cells in mice; conditions: Gemcitabine 100 mg/kg i.v. every three days
Protocol: BxPC-3 is a gemcitabine resistant call line. […] Gemcitabine was administered intravenously every three days at a dose of 100 mg/kg. Antitumour activities were estimated by the inhibition of tumour volume, which was measured with caliper. Each point represents mean tumour volume calculated from 10 animals per experimental group. […] Hela S3 is a hydroxyurea resistant cell line. […] Hydroxyurea was administered intraperitoneally every day at a dose of 250 mg/kg for 10 days. Cisplatin was administered intravenously once a week for three weeks at a dose of 4 mg/kg. Antitumour activities were estimated by the inhibition of tumour volume, which was measured with caliper. Each point represents mean tumour volume calculated from 10 animals per experimental group. […] Cisplatin was administered intravenously once a week for three weeks at a dose of 4 mg/kg. Taxol was administered intravenously once a week for three weeks at a dose of 10 mg/kg. Antitumour activities were estimated by the inhibition of tumour volume, which was measured with caliper. Each point represents mean tumour volume calculated from 10 animals per experimental group. […] Taxol was administered i.p. once a week at a dose of 10 mg/kg. Antitumour activities were estimated by the inhibition of tumour volume (FIG. 12A), which was measured with calipers. Each point represents mean tumour volume calculated from 10 animals per experimental group. Animals were sacrificed and tumour weights taken at the end of the study (FIG. 12C). […] Cisplatin was administered intravenously once a week for four weeks at a dose of 4 mg/kg. Taxol was administered intravenously once a week for four weeks at a dose of 20 mg/kg. Antitumour activities were estimated by the inhibition of tumour volume, which was measured with caliper. Each point represents mean tumour volume calculated from 9-10 animals per experimental group. […] Cisplatin was administered intravenously once a week for four weeks at a dose of 4 mg/kg. Antitumour activities were estimated by the inhibition of tumour volume, which was measured with caliper. Each point represents mean tumour volume calculated from 10 animals per experimental group. At the end of the study the animals were sacrificed and tumours weighed. […] Taxol was administered i.p. once a week at a dose of 10 mg/kg. Anti-tumour activity was estimated by the inhibition of tumour volume, which was measured with caliper. Each point represents mean tumour volume calculated from 10 animals per experimental group. […] Antitumour activities were estimated by the inhibition of tumour volume, which was measured with caliper. Each point represents mean tumour volume calculated from 10 animals per experimental group. Tumour weights were measured after animals were sacrificed at the end of the treatment. […]

[2] = tested on: SIHA human cervical cancer cells; experiment: SIHA cervical tumour growth in SCID mice (3.10); type: in vivo, human cells in mice
Protocol: Treatments lasted for 14 days thereafter. Antitumour activities were estimated by the inhibition of tumour volume, which was measured with a caliper on four different occasions over the treatment period. Each point represents mean tumour volume calculated from 5 animals per experimental group. […] Control animals (control) received saline alone for the same period. At the end of the treatments, the animals were sacrificed, tumours were excised and their weights were measured. Each bar represents mean tumour weight calculated from 6 animals per experimental group. […] Treatments lasted for 24 days thereafter. Antitumour activities were estimated by the inhibition of tumour volume, which was measured with a caliper at two-day intervals over the treatment period. Each point represents mean tumour volume calculated from 4 animals per experimental group. […] Treatments lasted for 24 days thereafter. Antitumour activities were estimated by the inhibition of tumour volume, which was measured with a caliper at two-day intervals over the treatment period. Each point represents mean tumour volume calculated from 4 animals per experimental group. […] Each point represents mean tumour volume calculated from 5 animals per experimental group. […] Antitumour activities were estimated by the inhibition of tumour volume, which was measured with a caliper on four different occasions over 16-day period. Each point represents mean tumour volume calculated from 5 animals per experimental group. […] Antitumour activities were estimated by the inhibition of tumour volume, which was measured with a caliper at two-day intervals over the treatment period. Each point represents mean tumour volume calculated from 5 animals per experimental group. […] Antitumour activities were estimated by the inhibition of tumour volume, which was measured with a caliper at various time intervals over the span of 30 days. Each point represents mean tumour volume calculated from 6 animals per experimental group. […] Antitumour activities were estimated by the inhibition of tumour volume, which was measured with a caliper. […]

[3] = tested on: CB7 Friend retrovirus-induced mouse Erythroleukaemia cells; experiment: Survival of SCID mice bearing mouse erythroleukaemia (CB7); type: in vivo; conditions: 10 mg/kg i.v. every second day, stopped at day 71, untreated all died within 36 days

Substance: 5′-GGCTAAATCGCTCCACCAAG-3′ (all phosphorothioate, sugars by position and methylation of C not given here) [SEQ ID NO: 1, fully phosphorothioated antisense oligonucleotide that hybridizes to the coding region of R2 mRNA]
- Tumour weight as % of saline control ([1]; BxPC-3 (pancreatic), Gemcitabine resistant, CD-1, SEQ ID NO:1 10 mg/kg i.v. every other day 17 times): 5.8%
- Antitumour effect (tumour volume, FIG. 9) ([1]; BxPC-3 gemcitabine resistant, CD-1 nude mice, SEQ ID NO:1 10 mg/kg i.v. every other day): significant delay of tumour growth compared to saline control
- Inhibition of tumour weight ([2]; Human Cervical Carcinoma^2): ~90%
- Inhibition of tumour size ([2]; Human Cervical Carcinoma^2 in SCID mice, Day 22 after tumour implantation): Inhibition of tumour size by approximately 90%
- Inhibitory effect on tumour growth (tumour volume and weight, FIG. 22) ([2]; SIHA, SCID mice, 10 mg/kg i.v. every other day, 16 days): strong inhibitory effects on the growth of human cervical carcinoma
- Survival of mice [3]: survived beyond day 71 except one mouse, which died at day 22
